From patent US20200338045A1, “ISOINDOLINE COMPOSITIONS AND METHODS FOR TREATING NEURODEGENERATIVE DISEASE” (priority 2017, published 2020)
Like-named read-outs stand apart in the source and are kept apart here. Marks after values point to notes of the source that are not given here.

Tests used:
[1] = Phase 1b/2a clinical trial (COG0102): safety and tolerability; assay type: in vivo, human; settings: for Mild TEAEs-n (%) / Moderate TEAEs-n (%) / SAEs-n (%) / Severe TEAEs-n (%) / TEAEs-n (%): once daily 28 days
Description: Safety and pharmacokinetics were primary objectives of the study, with changes in molecular biomarkers and cognitive outcomes identified as an exploratory objective. […]
This trial (ClinicalTrials.gov NCT02907567) was a randomized, double-blind, placebo-controlled clinical trial in mild to moderate Alzheimer's patients (MMSE 18-26) (See FIG. 1 for clinical trial design). The trial was conducted at six sites in Australia. Patients were randomized into placebo (n=5) or CT1812-treated groups: 90 mg (n=4), 280 mg (n=5) or 560 mg (n=5) and treated once daily for 28 days. Clinical chemistry was done at Sydpath (Sydney, AU). Pharmacokinetics were done at CPR Pharma Services (Adelaide, AU). Cerebrospinal fluid samples were taken at screening and day 21-28 of treatment and aliquoted. Plasma samples were taken at screening or Day 1 (one sample) and day 14-28, then spun down to separate plasma and aliquoted. One set of CSF samples was analyzed for Alzheimer's disease biomarkers; protein measurements (Aβ42, A1340, total tau, tau phosphorylated at threonine 181 (phosphorylated tau), NFL and neurogranin) were performed using commercially available ELISA assays from Fujirebio according to the manufacturer's instructions (INNOTEST β-AMYLOID(1-42), INNOTEST β-AMYLOID(1-40), INNOTEST hTau Ag, INNOTEST PHOSPHO-TAU(181P), Uman Diagnostics NFL assay). Neurogranin was measured with a sandwich ELISA method using antibodies Ng2 and Ng22 developed at the University of Gotteborg (Kvartsberg et al. 2015). Identical aliquots of CSF, and plasma were analyzed for protein expression changes via LC/MSMS at Caprion (see below).

[2] = tested on: CYP isoenzymes; experiment: Drug interaction studies
[3] = Phase 1 MAD cognitive testing in healthy elderly cohort; assay type: in vivo, human
Description: The Alzheimer's Disease Assessment Scale-Cognition Subscale (ADAS-Cog 13) and a cognitive battery (including the category fluency test, controlled word association test, WMS-R digit span, digit symbol substitution test, and Rey Auditory Verbal Learning Test) were administered to subjects in the elderly cohort at baseline and on Day 14.

[4] = Phase 1 multiple ascending dose (MAD) plasma pharmacokinetics; assay type: in vivo, human; settings: for Cmax / AUC(0-t) / Tmax / half-life: human, plasma, oral; for AUC(0-t): read-out: AUC0-24h (mean)
Description: In Part B, healthy young subjects in each cohort received the same dose once daily for 14 days after overnight fasting. Cohort dosing started at 280 mg, followed by 560 mg and 840 mg in subsequent cohorts. In each cohort, eight subjects received drug and two received placebo. A fourth cohort of healthy elderly subjects (≥65 years old) received a 560 mg dose vs. placebo daily for 14 days (seven active, two placebo).
In Part A, blood draws for assessment of PK parameters occurred pre-dose and at 15, 30, 45, 60, and 90 minutes post dose as well as at 2, 3, 4, 8, 12, 24, 36, and 48 hours post dose. […] In Part B, blood samples for plasma PK analysis were taken on Day 1 at pre-dose and at 2 hours post-dose, on Day 3 at pre-dose and at 15, 30 and 45 minutes and 1, 2, 3, 4, 8, 12 and 24 hours post-dose, on Days 4, 6, 8 and 10 at pre-dose and at 1.5 hours post-dose and following the final dose on Day 14 at pre-dose and 15, 30 and 45 minutes and 1, 2, 4, 8, 12, 24, 36 and 48 hours post-dose.
This was assessed by analysis of variance (ANOVA) of log-transformed Cmax, AUC0-24, AUC0-48, and/or AUC0-inf, using a model with factors for treatment (fed status or age [young vs. elderly] status) and subject within sequence. Treatment mean differences and 90% confidence intervals of the log transformed PK parameters were back-transformed, to present the geometric least squares means ratios and 90% confidence limits.

[5] = 560 mg daily, Day 14 (steady state)
[6] = 560 mg daily, day 3, geometric least-squares mean
[7] = 280 mg, 280 mg QD, Day 3, age up to 64 years (n = 8)
[8] = 280 mg, 280 mg QD, Day 14, age up to 64 years (n = 8)
[9] = 560 mg, 560 mg QD, Day 3, age at least 65 years (n = 7)
[10] = 560 mg, 560 mg QD, Day 3, age up to 64 years (n = 8)
[11] = 560 mg, 560 mg QD, Day 14, age at least 65 years (n = 7)
[12] = 560 mg, 560 mg QD, Day 14, age up to 64 years (n = 8)
[13] = 840 mg, 840 mg QD, Day 3, age up to 64 years (n = 7)
[14] = 840 mg, 840 mg QD, Day 14, age up to 64 years (n = 7)

## CC(C)(C)Oc1cc(CCC(C)(C)N2Cc3ccc(S(C)(=O)=O)cc3C2)ccc1O [CT1812]
[1]; 90 mg (as in Table 3)
  Headache-n (%): 1 (25%) n (%)
  Lymphocytopenia-n (%): 0 (0%) n (%)
  Nausea-n (%): 0 (0%) n (%)
  Vomiting-n (%): 0 (0%) n (%)
[1]; 90 mg (n = 4)
  Mild TEAEs-n (%): 4 (100%) n (%)
  Moderate TEAEs-n (%): 0 (0%) n (%)
  SAEs-n (%): 0 (0%) n (%)
  Severe TEAEs-n (%): 0 (0%) n (%)
  TEAEs-n (%): 3 (75%) n (%)
[1]; 280 mg (as in Table 3)
  Headache-n (%): 0 (0%) n (%)
  Lymphocytopenia-n (%): 0 (0%) n (%)
  Nausea-n (%): 0 (0%) n (%)
  Vomiting-n (%): 0 (0%) n (%)
[1]; 280 mg (n = 5)
  Mild TEAEs-n (%): 3 (60%) n (%)
  Moderate TEAEs-n (%): 1 (20%) n (%)
  SAEs-n (%): 0 (0%) n (%)
  Severe TEAEs-n (%): 0 (0%) n (%)
  TEAEs-n (%): 4 (80%) n (%)
[1]; 560 mg (as in Table 3)
  Headache-n (%): 2 (40%) n (%)
  Nausea-n (%): 2 (40%) n (%)
  Vomiting-n (%): 2 (40%) n (%)
[1]; 560 mg (n = 5)
  Mild TEAEs-n (%): 5 (100%) n (%)
  Moderate TEAEs-n (%): 3 (60%) n (%)
  SAEs-n (%): 0 (0%) n (%)
  Severe TEAEs-n (%): 0 (0%) n (%)
  TEAEs-n (%): 5 (100%) n (%)
[1]; 90, 280 and 560 mg once daily 28 days, mild to moderate Alzheimer's patients
  safety and tolerability: generally safe and well tolerated
[1]; one participant at 560 mg, resolved by end of study, no increase in bilirubin
  ALT: ~4.7 ×ULN
[2]
  interactions with CYP isoenzymes: minor interactions
[3]; healthy elderly cohort, 560 mg, day zero vs day 14
  cognitive scores before vs after treatment: similar
[3]; healthy elderly, 560 mg for 14 days (N = 7), Day 14, Day 0: 9.6 (4.2)
  COWAT (Trial 2), Mean (SD): 10.6 (5.1)
[3]; healthy elderly, 560 mg for 14 days (N = 7), Day 14, Day 0: 11.3 (5.7)
  COWAT (Trial 1), Mean (SD): 12.6 (4.5)
[3]; healthy elderly, 560 mg for 14 days (N = 7), Day 14, Day 0: 14.6 (5.7)
  COWAT (Trial 3), Mean (SD): 15.1 (3.7)
[3]; healthy elderly, 560 mg for 14 days (N = 7), Day 14, Day 0: 17.3 (3.9)
  RAVLT, Mean (SD): 18.7 (3.1)
[3]; healthy elderly, 560 mg for 14 days (N = 7), Day 14, Day 0: 17.9 (3.3)
  WMS-R (Digit Span), Mean (SD): 17.9 (3.3)
[3]; healthy elderly, 560 mg for 14 days (N = 7), Day 14, Day 0: 18.4 (5.5)
  CFT, Mean (SD): 19.7 (2.4)
[3]; healthy elderly, 560 mg for 14 days (N = 7), Day 14, Day 0: 78.3 (11.0)
  DSST, Mean (SD): 80 (9.6)
[4]; 280 mg QD, Day 14, age up to 64 years (n = 8), unit assumed
  CLss/F (mean): 387 L/h
[4]; 560 mg QD, Day 14, age at least 65 years, n = 7
  CLss/F (mean): 169^‡‡
[4]; 560 mg QD, Day 14, age up to 64 years (n = 8), unit assumed
  CLss/F (mean): 296 L/h
[4]; [5]
  AUC0-24h, aged cohort vs younger subjects: 1.5 times
  Cmax, aged cohort vs younger subjects: 1.6 times
[4]; [6]
  AUC0-24h, aged cohort vs subjects under 64 years: ~1.34 times
  Cmax, aged cohort vs subjects under 64 years: approximately 1.7 times
[4]; 840 mg QD, Day 14, age up to 64 years, n = 7
  CLss/F (mean): 212^‡‡
[4]; MAD 280 to 840 mg
  Cmax and AUC / plasma concentration vs dose: slightly greater than dose proportionally
[4]; Q.D. over 14 days
  accumulation with repeat dosing: minimal accumulation
[4]; [7]
  Cmax: 0.238 µg/mL
  AUC(0-t): 0.851 µg·h/mL
[4]; 280 mg, 280 mg QD, Day 3, age up to 64 years (n = 8), read-out: Tmax (median)
  Tmax: 1.5 h
[4]; 280 mg, 280 mg QD, Day 3, age up to 64 years, n = 6, over max 24 hours post dose, read-out: t1/2 (mean) (converted)
  half-life: 8.97 h
[4]; [8]
  Cmax: 0.431 µg/mL
  AUC(0-t): 1.06 µg·h/mL
[4]; 280 mg, 280 mg QD, Day 14, age up to 64 years (n = 8), read-out: Tmax (median)
  Tmax: 0.88 h
[4]; 280 mg, 280 mg QD, Day 14, age up to 64 years (n = 8), read-out: t1/2 (mean) (converted)
  half-life: 12 h
[4]; [9]
  Cmax: 0.567 µg/mL
  AUC(0-t): 3.33 µg·h/mL
[4]; 560 mg, 560 mg QD, Day 3, age at least 65 years (n = 7), read-out: Tmax (median)
  Tmax: 2 h
[4]; 560 mg, 560 mg QD, Day 3, age at least 65 years, n = 4, over max 24 hours post dose, read-out: t1/2 (mean) (converted)
  half-life: 8.83 h
[4]; [10]
  Cmax: 0.407 µg/mL
  AUC(0-t): 1.94 µg·h/mL
[4]; 560 mg, 560 mg QD, Day 3, age up to 64 years (n = 8), read-out: Tmax (median)
  Tmax: 2 h
[4]; 560 mg, 560 mg QD, Day 3, age up to 64 years, n = 2, over max 24 hours post dose, read-out: t1/2 (mean) (converted)
  half-life: 8.56 h
[4]; [11]
  Cmax: 0.853 µg/mL
  AUC(0-t): 4.45 µg·h/mL
[4]; 560 mg, 560 mg QD, Day 14, age at least 65 years (n = 7), read-out: Tmax (median)
  Tmax: 1 h
[4]; 560 mg, 560 mg QD, Day 14, age at least 65 years (n = 7), read-out: t1/2 (mean) (converted)
  half-life: 12.8 h
[4]; [12]
  Cmax: 0.651 µg/mL
  AUC(0-t): 2.81 µg·h/mL
[4]; 560 mg, 560 mg QD, Day 14, age up to 64 years (n = 8), read-out: Tmax (median)
  Tmax: 2 h
[4]; 560 mg, 560 mg QD, Day 14, age up to 64 years (n = 8), read-out: t1/2 (mean) (converted)
  half-life: 12.3 h
[4]; [13]
  Cmax: 0.813 µg/mL
  AUC(0-t): 3.61 µg·h/mL
[4]; 840 mg, 840 mg QD, Day 3, age up to 64 years (n = 7), read-out: Tmax (median)
  Tmax: 2 h
[4]; 840 mg, 840 mg QD, Day 3, age up to 64 years, n = 5, over max 24 hours post dose, read-out: t1/2 (mean) (converted)
  half-life: 9.39 h
[4]; [14]
  Cmax: 0.991 µg/mL
  AUC(0-t): 4.99 µg·h/mL
[4]; 840 mg, 840 mg QD, Day 14, age up to 64 years (n = 7), read-out: Tmax (median)
  Tmax: 2 h
[4]; 840 mg, 840 mg QD, Day 14, age up to 64 years, n = 6, read-out: t1/2 (mean) (converted)
  half-life: 8.93 h
[4]; MAD, read-out: average terminal half-life at steady state (converted)
  half-life: ~12 h
[4]; part B (MAD), 280-840 mg, read-out: Tmax in plasma, range over doses
  Tmax: 0.88 to 2 h
